Among the data in patent publication US7452905B2, “Phenylalanine derivatives” (Ajinomoto Co., Inc., priority 2000, dated 2008) are IC50 values, retold here.

The target of the experiment is T1, integrin α4 β1 (Homo sapiens, UniProt P05556+P13612).
T1 construct: cell strain Jurkat (ATCC TIB-152) of human T cells, known to express integrin α4 β1; endogenous in cells; host or cells: Jurkat (ATCC TIB-152)
T1 sequence (P13612 34-1032): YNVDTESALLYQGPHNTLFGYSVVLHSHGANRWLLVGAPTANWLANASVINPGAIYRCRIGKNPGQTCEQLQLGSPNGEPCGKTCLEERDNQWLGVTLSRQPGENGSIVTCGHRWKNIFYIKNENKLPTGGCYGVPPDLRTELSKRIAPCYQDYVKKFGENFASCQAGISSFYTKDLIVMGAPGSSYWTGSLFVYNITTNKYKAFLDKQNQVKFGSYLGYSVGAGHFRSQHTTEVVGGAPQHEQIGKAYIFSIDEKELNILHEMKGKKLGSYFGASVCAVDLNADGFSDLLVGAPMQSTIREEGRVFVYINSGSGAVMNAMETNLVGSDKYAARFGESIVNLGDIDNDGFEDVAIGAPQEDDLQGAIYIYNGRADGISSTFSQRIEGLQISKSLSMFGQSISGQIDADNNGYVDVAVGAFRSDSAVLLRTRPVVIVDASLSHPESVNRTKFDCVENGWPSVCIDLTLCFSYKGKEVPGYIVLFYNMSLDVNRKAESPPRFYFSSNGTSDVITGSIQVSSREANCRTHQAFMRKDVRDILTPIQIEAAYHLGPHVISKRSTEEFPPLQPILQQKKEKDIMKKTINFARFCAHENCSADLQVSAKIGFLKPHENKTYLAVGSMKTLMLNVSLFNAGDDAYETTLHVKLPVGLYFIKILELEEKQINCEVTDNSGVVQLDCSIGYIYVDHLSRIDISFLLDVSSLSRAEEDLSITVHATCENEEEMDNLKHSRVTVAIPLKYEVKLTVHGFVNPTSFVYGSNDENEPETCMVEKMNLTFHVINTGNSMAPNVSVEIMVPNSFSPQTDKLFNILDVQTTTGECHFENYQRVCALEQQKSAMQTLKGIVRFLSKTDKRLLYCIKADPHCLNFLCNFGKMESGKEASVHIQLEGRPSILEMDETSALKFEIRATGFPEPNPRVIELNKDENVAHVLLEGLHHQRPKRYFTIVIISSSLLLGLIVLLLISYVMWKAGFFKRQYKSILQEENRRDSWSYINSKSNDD
T1 sequence (P05556 21-798): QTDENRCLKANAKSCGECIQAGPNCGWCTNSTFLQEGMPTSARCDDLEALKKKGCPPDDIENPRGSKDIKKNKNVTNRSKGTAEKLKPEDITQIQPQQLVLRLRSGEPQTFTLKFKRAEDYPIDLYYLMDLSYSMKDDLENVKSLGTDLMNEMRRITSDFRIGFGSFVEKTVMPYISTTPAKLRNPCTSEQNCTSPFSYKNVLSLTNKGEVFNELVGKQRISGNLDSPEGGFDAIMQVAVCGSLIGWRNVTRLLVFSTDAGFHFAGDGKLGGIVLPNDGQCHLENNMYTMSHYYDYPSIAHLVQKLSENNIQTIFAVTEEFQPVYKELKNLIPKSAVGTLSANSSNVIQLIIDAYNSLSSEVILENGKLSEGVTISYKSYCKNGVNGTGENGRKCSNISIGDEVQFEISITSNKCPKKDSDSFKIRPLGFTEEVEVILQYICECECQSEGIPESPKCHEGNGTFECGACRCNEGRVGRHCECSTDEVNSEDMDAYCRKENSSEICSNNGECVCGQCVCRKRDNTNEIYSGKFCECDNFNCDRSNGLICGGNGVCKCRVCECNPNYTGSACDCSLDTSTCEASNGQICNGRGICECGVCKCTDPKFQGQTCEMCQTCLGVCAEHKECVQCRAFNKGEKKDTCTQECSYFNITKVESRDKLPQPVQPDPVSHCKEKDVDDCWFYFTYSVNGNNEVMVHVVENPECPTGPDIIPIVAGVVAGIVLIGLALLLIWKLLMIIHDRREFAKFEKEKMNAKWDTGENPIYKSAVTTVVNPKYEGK
In words: VCAM antagonist activity (VCAM-1/α4β1 binding assay), Jurkat cells binding to VCAM-1. To be noted: Jurkat cells binding to recombinant human VCAM-1; 50% binding inhibition; read-out: Antagonistic Activity IC50 α 4 β 1/VCAM. In kind it is cell-based. How it is done:
VCAM Antagonist Activity (VCAM-1/α4β1 Binding Assay)
The capacity of a test substance antagonistic to the binding of cell strain Jurkat (ATCC TIB-152) of human T cells, known to express integrin α4 β1, to VCAM-1 was determined. 100 μl/well of a solution (500 ng/ml) of recombinant human VCAM-1 (R & D systems) solution diluted with buffer A (0.1 M NaHCO3, pH 9.6) was added to a micro titer plate having 96 wells (Nunc Maxisorp). After the incubation at 4° C. overnight, unbound VCAM-1 was removed by washing once with PBS. After completion of the washing, a buffer (buffer B) obtained by diluting Block Ace (Dainippon Pharmaceutical Co., Ltd.) with PBS to ¼ concentration was added in an amount of 150 μl/well. After the incubation at room temperature for 1 hour, buffer B was removed and the plate was washed with PBS once.
Jurkat cells were washed with Dulbecco modified Eagle medium (SIGMA, hereinafter referred to as “DMEM”) twice and then incubated in DMEM containing 10 μg/ml of Calcein-AM (Wako Pure Chemical Industries, Ltd.) at 37° C. in dark place for 30 minutes to label with fluorescence. The cells were again suspended in a binding buffer (20 mM HEPES, DMEM containing 0.1% BSA).
50 μl of a test substance of various concentrations obtained by the dilution with the binding buffer was added to the plate. Immediately thereafter, 50 μl (final volume: 100 μl well) of the fluorescent Jurkat cells (4×10^6 cells/ml) were added thereto, and they were incubated at room temperature for 30 minutes. After the shaking on a plate shaker (IKA MTS-4) at 800 rpm for 30 seconds, the solution was immediately removed to remove the unbound cells. The fluorescence quantity of the bound cells remaining in the wells was determined with a fluorescent plate reader (Wallac 1420 ARVO multi-label counter) (filter excitation wave length: 485 nm, emission wave length: 535 nm). The fluorescent strength thus obtained is proportional to the number of Jurkat cells bound to VCAM-1 and remaining on the plate. The binding rate of each test material in various concentrations was determined while the fluorescent strength of the test material-free well was determined to be 100%. The concentration IC50 for the 50% binding inhibition was calculated.
Turning to `O=C(N[C@@H](Cc1ccc(N2C(=O)c3ccccc3C2=O)cc1)C(=O)O)c1c(Cl)cccc1Cl` [Example 1], the IC50 was determined as 210 nM.
For `Cc1ccc2c(c1)C(=O)N(c1ccc(C[C@H](NC(=O)c3c(Cl)cccc3Cl)C(=O)O)cc1)C2=O` [Example 6], the IC50 was 240 nM.
As to `O=C(N[C@@H](Cc1ccc(N2C(=O)c3ccc([N+](=O)[O-])cc3C2=O)cc1)C(=O)O)c1c(Cl)cccc1Cl` [Example 9], the IC50 is 170 nM.
Regarding `O=C(N[C@@H](Cc1ccc(N2C(=O)Cc3ccccc3C2=O)cc1)C(=O)O)c1c(Cl)cccc1Cl` [Example 15], the IC50 came to 740 nM.
Turning to `O=C(N[C@@H](Cc1ccc(N2C(=O)c3cccc4cccc(c34)C2=O)cc1)C(=O)O)c1c(Cl)cccc1Cl` [Example 16], the IC50 was found to be 1100 nM.
As for `O=C(N[C@@H](Cc1ccc(N2Cc3ccccc3C2=O)cc1)C(=O)O)c1c(Cl)cccc1Cl` [Example 17], the figure is 1900 nM.
For `O=C(N[C@@H](Cc1ccc(N2CC=CC2=O)cc1)C(=O)O)c1c(Cl)cccc1Cl` [Example 25], the IC50 is 5000 nM.
Consider `O=C(N[C@@H](Cc1ccc(N2CC=CCC2=O)cc1)C(=O)O)c1c(Cl)cccc1Cl` [Example 26], for which the IC50 amounted to 5300 nM.
As for `O=C(N[C@@H](Cc1ccc(N2CC=CCCC2=O)cc1)C(=O)O)c1c(Cl)cccc1Cl` [Example 27], the figure is 2800 nM; as for `Cc1ccc(C)c2c1C(=O)N(c1ccc(C[C@H](NC(=O)c3c(Cl)cccc3Cl)C(=O)O)cc1)C2=O` [Example 30], 450 nM; as for `CN(C)C(=O)c1ccc2c(c1)C(=O)N(c1ccc(C[C@H](NC(=O)c3c(Cl)cccc3Cl)C(=O)O)cc1)C2=O` [Example 33], 260 nM.
For `O=C(N[C@@H](Cc1ccc(N2C(=O)C3=C(CCCC3)C2=O)cc1)C(=O)O)c1c(Cl)cccc1Cl` [Example 37], the IC50 was determined as 140 nM.
Consider `O=C(N[C@@H](Cc1ccc(N2C(=O)C3=C(SCCS3)C2=O)cc1)C(=O)O)c1c(Cl)cccc1Cl` [Example 38], for which the IC50 stood at 220 nM.
As for `O=C(N[C@@H](Cc1ccc(N2C(=O)[C@@H]3CCCC[C@H]3C2=O)cc1)C(=O)O)c1c(Cl)cccc1Cl` [Example 40], the figure is 240 nM; as for `O=C(N[C@@H](Cc1ccc(N2C(=O)[C@@H]3[C@H](C2=O)[C@@H]2C=C[C@H]3C2)cc1)C(=O)O)c1c(Cl)cccc1Cl` [Example 42], 560 nM; as for `CC1CCC2C(=O)N(c3ccc(C[C@H](NC(=O)c4c(Cl)cccc4Cl)C(=O)O)cc3)C(=O)C2C1` (some centres unmarked) [Example 43], 1600 nM.
On to `O=C(N[C@@H](Cc1ccc(N2C(=O)[C@@H]3[C@H](C2=O)[C@@H]2C=C[C@H]3CC2)cc1)C(=O)O)c1c(Cl)cccc1Cl` [Example 44], for which the IC50 amounted to 1400 nM.
On to `O=C(N[C@@H](Cc1ccc(N2C(=O)[C@H]3CC=CC[C@H]3C2=O)cc1)C(=O)O)c1c(Cl)cccc1Cl` [Example 45], for which the IC50 is 1200 nM.
Regarding `O=C(N[C@@H](Cc1ccc(N2C(=O)C3CC3C2=O)cc1)C(=O)O)c1c(Cl)cccc1Cl` (some centres unmarked) [Example 46], the IC50 stood at 1700 nM.
Consider `O=C(N[C@@H](Cc1ccc(N2C(=O)[C@H]3CC[C@H](c4ccccc4)C[C@H]3C2=O)cc1)C(=O)O)c1c(Cl)cccc1Cl` [Example 47], for which the IC50 was 2100 nM.
With `O=C(N[C@@H](Cc1ccc(N2C(=O)CC3(CCCC3)CC2=O)cc1)C(=O)O)c1c(Cl)cccc1Cl` [Example 48], the IC50 turned out to be 1300 nM.
As for `CC1(C)[C@H]2CC[C@]1(C)C(=O)N(c1ccc(C[C@H](NC(=O)c3c(Cl)cccc3Cl)C(=O)O)cc1)C2=O` [Example 49], the IC50 is 2000 nM.
Take `Cc1cccc2c1C(=O)N(c1ccc(C[C@H](NC(=O)c3c(Cl)cncc3Cl)C(=O)O)cc1)C2=O` [Example 59]: the IC50 was determined as 73 nM.
The value for `Nc1cccc2c1C(=O)N(c1ccc(C[C@H](NC(=O)c3c(Cl)cccc3Cl)C(=O)O)cc1)C2=O` [Example 71] was 410 nM.
Consider `CCOc1cccc2c1C(=O)N(c1ccc(C[C@H](NC(=O)c3c(Cl)cccc3Cl)C(=O)O)cc1)C2=O` [Example 73], for which the IC50 worked out at 210 nM.
Take `O=C(N[C@@H](Cc1ccc(N2C(=O)c3cccc(OCc4ccccc4)c3C2=O)cc1)C(=O)O)c1c(Cl)cccc1Cl` [Example 74]: the IC50 stood at 1200 nM.
As to `CCCCOc1cccc2c1C(=O)N(c1ccc(C[C@H](NC(=O)c3c(Cl)cccc3Cl)C(=O)O)cc1)C2=O` [Example 75], the IC50 came out at 790 nM.
With `O=C(N[C@@H](Cc1ccc(N2C(=O)c3ccc(O)cc3C2=O)cc1)C(=O)O)c1c(Cl)cccc1Cl` [Example 77], the IC50 came to 770 nM.
Regarding `COc1ccc2c(c1)C(=O)N(c1ccc(C[C@H](NC(=O)c3c(Cl)cccc3Cl)C(=O)O)cc1)C2=O` [Example 78], the IC50 worked out at 520 nM.
Consider `CCOc1ccc2c(c1)C(=O)N(c1ccc(C[C@H](NC(=O)c3c(Cl)cccc3Cl)C(=O)O)cc1)C2=O` [Example 79], for which the IC50 turned out to be 570 nM.
The value for `O=C(N[C@@H](Cc1ccc(N2C(=O)c3ccc(OCc4ccccc4)cc3C2=O)cc1)C(=O)O)c1c(Cl)cccc1Cl` [Example 80] was 1100 nM; that for `O=C(N[C@@H](Cc1ccc(N2C(=O)Cc3ccccc3CC2=O)cc1)C(=O)O)c1c(Cl)cccc1Cl` [Example 82] was 3500 nM; that for `Cc1cccc2c1C(=O)N(c1ccc(C[C@H](NC(=O)c3c(Cl)cc(-c4nnn[nH]4)cc3Cl)C(=O)O)cc1)C2=O` [Example 83, (2S)-2-(2,6-dichloro-4-tetrazolyl-benzoylamino)-3-[4-(4-methyl-1,3-dioxo-1,3-dihydroisoindole-2-yl)phenyl] Propionic Acid] was 5.9 nM.
Take `Cc1cccc2c1C(=O)N(c1ccc(C[C@H](NC(=O)c3c(Cl)cc(NS(C)(=O)=O)cc3Cl)C(=O)O)cc1)C2=O` [Example 84]: the IC50 stood at 15 nM.
The value for `CC(=O)C1Cc2ccccc2C(=O)N1c1ccc(C[C@H](NC(=O)c2c(Cl)cccc2Cl)C(=O)O)cc1` (some centres unmarked) [Example 86] was 530 nM.
